Entries after “also recorded” stand apart in the source; their conditions may differ.
Columns and labels:
[1] = system: Ba/F3 cells expressing the GyrB/Flt3 construct; assay: Growth of Ba/F3 cells expressing GyrB/Flt3 in the presence of the CID coumermycin; type: cell-based; conditions: FIG. 1
Description: (§1) An MSCV-based vector was constructed that encodes a fusion protein containing a myristylation domain linked to DNA gyrase B, which in turn is linked to the intracellular portion of murine flt-3, which in turn is linked to an HA epitope tag. […] Ba/F3 cells expressing the GyrB/Flt3 construct can be distinguished from Ba/F3 cells expressing EpoR/Abl using intracellular flow cytometry with an antibody directed against the HA tag.

[2] = system: Ba/F3 cells expressing EpoR/Abl mixed with Ba/F3 cells expressing GyrB/Flt3; assay: Mixed culture of EpoR/Abl and GyrB/Flt3 Ba/F3 cells, HA tag flow cytometry; type: cell-based; conditions: coumermycin 1 nM, absence of IL-3, 4 days, flow cytometry for HA tag; FIG. 2
Protocol: A cDNA containing the EpoRIAbl construct was used to transduce Ba/F3 cells by retroviral gene transfer. After two days, IL-3 containing medium was washed away, and cells were cultured in the presence of erythropoietin (3 units/ml), without IL-3, to generate a polyclonal pool of erythropoietin dependent cells.
as §1
After 4 days, the frequency of cells expressing the HA tag was determined by flow cytometry.

[3] = system: Ba/F3EpoRAbl cells; conditions: nude mice, tail vein injection of cells followed by injections of erythropoietin; cited from earlier work
[4] = system: Reh cells (EpoR); assay: STAT5 phosphorylation in Reh cells upon addition of erythropoietin; type: cell-based; conditions: human TEL/AML1+ ALL line
Description: A number of nonerythroid cell lines have been examined for EpoR expression.

## coumermycin
[1]
  growth of Ba/F3 cells in the presence of the CID: capable of growth; also recorded: capable of group
[2]
  erythropoietin responsive (HA-negative) cells in mixed culture: sharp reduction in erythropoietin responsive (HA-negative) cells

## erythropoietin
[3]
  death of mice injected with Ba/F3EpoRAbl cells: induce death with a timecourse that is dependent on the concentration of exogenously administered Epo
[4]
  STAT5 phosphorylation: exhibit STAT5 phosphorylation
